Where two headings read alike, the source gives them in different places. Values belong to the molecule of their own block, whether it stands above or below them.
How the values were obtained:
BRD8(1) = BRD8(1) (Homo sapiens, UniProt Q9H0E9); assay: AlphaScreen biotin-tracer competition; format: binding
BRD9 [1] = biological target: BRD9 (Homo sapiens, UniProt Q9H8M2); assay: AlphaScreen tracer competition; format: binding
Target sequence in this assay (Q9H8M2 134-239 limits assumed): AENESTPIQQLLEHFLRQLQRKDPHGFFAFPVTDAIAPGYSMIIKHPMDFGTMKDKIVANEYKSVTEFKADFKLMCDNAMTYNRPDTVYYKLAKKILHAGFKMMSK

ATAD2A = ATAD2A (Homo sapiens, UniProt Q6PL18); assay: biochemical; settings: read-out: % Ctrl (1 uM)
BRD7 = BRD7 (Homo sapiens, UniProt Q9NPI1); assay: biochemical; settings: read-out: % Ctrl (1 uM)
BRDT(1) = BRDT(1) (Homo sapiens, UniProt Q58F21); assay: biochemical; settings: read-out: % Ctrl (1 uM)
CREBBP = CREBBP (Homo sapiens, UniProt Q92793); assay: biochemical; settings: read-out: % Ctrl (1 uM)
BRD4(2) = BRD4(2) (Homo sapiens, UniProt O60885); assay: biochemical; settings: read-out: % Ctrl (1 uM)
CECR2 = CECR2 (Homo sapiens, UniProt Q9BXF3); assay: biochemical; settings: read-out: % Ctrl (1 uM)
PBRM1(2) = PBRM1(2) (Homo sapiens, UniProt Q86U86); assay: biochemical; settings: read-out: % Ctrl (1 uM)
TAF1L(2) = TAF1L(2) (Homo sapiens, UniProt Q8IZX4); assay: biochemical; settings: read-out: % Ctrl (1 uM)
GCN5L2 = GCN5L2 (Homo sapiens, UniProt Q92830); assay: biochemical; settings: read-out: % Ctrl (1 uM)
BRD1 = BRD1 (Homo sapiens, UniProt O95696); assay: biochemical; settings: read-out: % Ctrl (1 uM)
PCAF = PCAF (Homo sapiens, UniProt Q92831); assay: biochemical; settings: read-out: % Ctrl (1 uM)
Chain of PCAF (Q92831 whole entry): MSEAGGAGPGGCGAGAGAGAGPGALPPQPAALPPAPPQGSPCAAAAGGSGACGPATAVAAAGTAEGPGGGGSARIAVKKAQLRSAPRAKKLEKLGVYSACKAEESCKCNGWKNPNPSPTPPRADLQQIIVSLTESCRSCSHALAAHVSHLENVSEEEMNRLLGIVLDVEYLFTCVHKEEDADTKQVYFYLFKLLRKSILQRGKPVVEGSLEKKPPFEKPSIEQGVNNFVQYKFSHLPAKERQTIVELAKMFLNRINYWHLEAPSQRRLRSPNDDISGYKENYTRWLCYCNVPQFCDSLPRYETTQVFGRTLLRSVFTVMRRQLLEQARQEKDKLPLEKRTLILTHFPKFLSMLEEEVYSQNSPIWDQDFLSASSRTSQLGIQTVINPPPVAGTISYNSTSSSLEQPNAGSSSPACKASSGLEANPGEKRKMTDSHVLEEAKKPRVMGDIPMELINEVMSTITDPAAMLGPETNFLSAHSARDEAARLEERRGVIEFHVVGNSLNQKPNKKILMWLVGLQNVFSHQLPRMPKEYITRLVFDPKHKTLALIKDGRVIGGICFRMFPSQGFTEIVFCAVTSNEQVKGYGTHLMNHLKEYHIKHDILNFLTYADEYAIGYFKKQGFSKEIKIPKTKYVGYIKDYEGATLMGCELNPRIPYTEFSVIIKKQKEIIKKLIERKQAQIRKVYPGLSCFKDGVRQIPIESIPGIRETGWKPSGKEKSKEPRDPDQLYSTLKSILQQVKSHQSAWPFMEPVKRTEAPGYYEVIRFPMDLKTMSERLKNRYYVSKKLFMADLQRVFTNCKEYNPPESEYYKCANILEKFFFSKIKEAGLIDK

BRD3(1) = BRD3(1) (Homo sapiens, UniProt Q15059); assay: biochemical; settings: read-out: % Ctrl (1 uM)
BAZ2A = BAZ2A (Homo sapiens, UniProt Q9UIF9); assay: biochemical; settings: read-out: % Ctrl (1 uM)
Chain of BAZ2A (Q9UIF9 whole entry): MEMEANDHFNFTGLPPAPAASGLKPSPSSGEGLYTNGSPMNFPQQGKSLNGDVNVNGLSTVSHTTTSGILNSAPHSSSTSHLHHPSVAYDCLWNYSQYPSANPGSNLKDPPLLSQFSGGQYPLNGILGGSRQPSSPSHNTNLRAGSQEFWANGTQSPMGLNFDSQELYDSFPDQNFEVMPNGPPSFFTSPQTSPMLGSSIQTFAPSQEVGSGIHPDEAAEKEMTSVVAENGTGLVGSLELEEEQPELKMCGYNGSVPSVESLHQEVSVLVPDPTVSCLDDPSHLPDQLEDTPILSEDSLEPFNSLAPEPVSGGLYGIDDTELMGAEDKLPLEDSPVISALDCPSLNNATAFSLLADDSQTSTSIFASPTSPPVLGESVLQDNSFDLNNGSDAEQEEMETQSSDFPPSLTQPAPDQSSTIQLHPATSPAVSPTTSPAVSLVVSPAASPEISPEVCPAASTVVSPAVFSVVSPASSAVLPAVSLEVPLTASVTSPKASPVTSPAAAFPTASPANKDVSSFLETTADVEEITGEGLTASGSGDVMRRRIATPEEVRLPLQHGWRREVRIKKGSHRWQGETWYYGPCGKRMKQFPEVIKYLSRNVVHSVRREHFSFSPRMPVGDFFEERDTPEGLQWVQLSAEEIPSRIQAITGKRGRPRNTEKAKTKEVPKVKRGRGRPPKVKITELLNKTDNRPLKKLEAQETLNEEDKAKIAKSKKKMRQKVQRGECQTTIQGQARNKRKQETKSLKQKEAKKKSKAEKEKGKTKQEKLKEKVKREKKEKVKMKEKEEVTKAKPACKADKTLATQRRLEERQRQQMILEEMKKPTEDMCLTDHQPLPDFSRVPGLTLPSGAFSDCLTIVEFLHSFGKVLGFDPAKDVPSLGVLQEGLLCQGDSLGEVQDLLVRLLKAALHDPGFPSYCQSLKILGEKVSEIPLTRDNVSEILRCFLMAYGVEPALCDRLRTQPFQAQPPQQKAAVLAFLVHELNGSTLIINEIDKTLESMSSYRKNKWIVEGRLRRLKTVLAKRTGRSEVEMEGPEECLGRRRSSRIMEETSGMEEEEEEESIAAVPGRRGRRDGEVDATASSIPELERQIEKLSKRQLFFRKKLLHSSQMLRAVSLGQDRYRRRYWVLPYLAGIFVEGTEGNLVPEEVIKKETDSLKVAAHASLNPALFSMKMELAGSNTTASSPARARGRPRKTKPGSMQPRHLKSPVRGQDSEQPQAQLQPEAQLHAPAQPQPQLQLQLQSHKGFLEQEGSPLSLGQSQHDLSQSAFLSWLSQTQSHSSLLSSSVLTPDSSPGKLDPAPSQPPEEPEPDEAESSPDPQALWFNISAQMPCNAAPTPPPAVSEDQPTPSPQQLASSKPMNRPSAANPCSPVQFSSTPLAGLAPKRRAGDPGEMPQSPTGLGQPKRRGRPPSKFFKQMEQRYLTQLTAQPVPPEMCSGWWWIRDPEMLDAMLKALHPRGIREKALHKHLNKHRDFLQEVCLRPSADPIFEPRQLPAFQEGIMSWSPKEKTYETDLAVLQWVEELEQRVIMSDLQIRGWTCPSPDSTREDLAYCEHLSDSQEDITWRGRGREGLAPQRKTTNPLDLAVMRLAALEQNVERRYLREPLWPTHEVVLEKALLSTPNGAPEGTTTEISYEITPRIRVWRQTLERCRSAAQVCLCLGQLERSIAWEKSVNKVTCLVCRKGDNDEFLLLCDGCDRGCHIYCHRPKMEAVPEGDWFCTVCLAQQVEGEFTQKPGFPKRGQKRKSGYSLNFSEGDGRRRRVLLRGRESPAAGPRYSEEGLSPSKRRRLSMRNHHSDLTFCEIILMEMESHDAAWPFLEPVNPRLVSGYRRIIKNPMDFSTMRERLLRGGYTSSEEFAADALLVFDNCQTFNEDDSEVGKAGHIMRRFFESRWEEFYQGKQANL

BRDT(2) = BRDT(2) (Homo sapiens, UniProt Q58F21); assay: biochemical; settings: read-out: % Ctrl (1 uM)
BRD4(1) = BRD4(1) (Homo sapiens, UniProt O60885); assay: biochemical; settings: read-out: % Ctrl (1 uM)
Trim33(PHD,Bromo.) = Trim33(PHD,Bromo.) (Homo sapiens, UniProt Q9UPN9); assay: biochemical; settings: read-out: % Ctrl (1 uM)
SMARCA2 = SMARCA2 (Homo sapiens, UniProt P51531); assay: biochemical; settings: read-out: % Ctrl (1 uM)
Chain of SMARCA2 (P51531 whole entry): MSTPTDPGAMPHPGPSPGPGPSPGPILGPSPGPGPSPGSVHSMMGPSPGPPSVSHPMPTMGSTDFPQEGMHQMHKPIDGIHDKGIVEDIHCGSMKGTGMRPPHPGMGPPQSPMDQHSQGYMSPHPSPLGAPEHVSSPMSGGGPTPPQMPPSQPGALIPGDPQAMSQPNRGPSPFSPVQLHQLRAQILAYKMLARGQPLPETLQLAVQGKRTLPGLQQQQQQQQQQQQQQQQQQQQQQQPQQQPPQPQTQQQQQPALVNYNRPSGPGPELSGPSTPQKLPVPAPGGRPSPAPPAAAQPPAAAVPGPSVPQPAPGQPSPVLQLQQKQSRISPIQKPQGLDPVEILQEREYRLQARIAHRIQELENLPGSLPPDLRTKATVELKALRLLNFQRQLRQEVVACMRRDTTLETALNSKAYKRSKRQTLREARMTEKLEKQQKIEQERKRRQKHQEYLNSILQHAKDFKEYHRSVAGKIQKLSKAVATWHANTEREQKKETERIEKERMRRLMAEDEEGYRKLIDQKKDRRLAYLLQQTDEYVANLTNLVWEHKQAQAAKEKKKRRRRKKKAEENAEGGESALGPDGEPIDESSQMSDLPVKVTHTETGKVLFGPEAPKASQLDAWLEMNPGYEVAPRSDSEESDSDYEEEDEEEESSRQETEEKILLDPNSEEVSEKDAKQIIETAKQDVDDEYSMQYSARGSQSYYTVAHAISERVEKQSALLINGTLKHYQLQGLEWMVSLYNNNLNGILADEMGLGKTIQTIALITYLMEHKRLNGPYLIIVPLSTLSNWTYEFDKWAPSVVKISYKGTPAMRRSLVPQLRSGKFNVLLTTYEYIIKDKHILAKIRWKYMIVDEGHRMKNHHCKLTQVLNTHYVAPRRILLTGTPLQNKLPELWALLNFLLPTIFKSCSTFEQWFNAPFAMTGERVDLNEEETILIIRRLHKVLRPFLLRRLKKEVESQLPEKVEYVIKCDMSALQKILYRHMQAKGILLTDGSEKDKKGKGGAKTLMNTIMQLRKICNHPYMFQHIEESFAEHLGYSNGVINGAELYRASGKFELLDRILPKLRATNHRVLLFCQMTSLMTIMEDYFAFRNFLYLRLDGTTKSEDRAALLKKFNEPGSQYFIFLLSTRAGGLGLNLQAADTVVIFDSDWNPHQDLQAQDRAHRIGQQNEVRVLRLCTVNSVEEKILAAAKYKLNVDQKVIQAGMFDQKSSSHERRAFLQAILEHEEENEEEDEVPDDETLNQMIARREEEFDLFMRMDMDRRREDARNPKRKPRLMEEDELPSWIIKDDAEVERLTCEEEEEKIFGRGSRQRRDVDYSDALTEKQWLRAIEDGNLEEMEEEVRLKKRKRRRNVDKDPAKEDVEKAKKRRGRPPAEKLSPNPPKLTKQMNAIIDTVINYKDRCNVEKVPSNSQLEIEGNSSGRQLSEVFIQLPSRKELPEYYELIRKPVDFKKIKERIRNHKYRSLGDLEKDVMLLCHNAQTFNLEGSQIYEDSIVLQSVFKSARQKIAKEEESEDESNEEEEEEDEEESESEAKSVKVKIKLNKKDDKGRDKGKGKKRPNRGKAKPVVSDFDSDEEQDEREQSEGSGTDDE

BRD9 [2] = biological target: BRD9 (Homo sapiens, UniProt Q9H8M2); assay: biochemical; settings: read-out: % Ctrl (1 uM)
TAF1(2) = TAF1(2) (Homo sapiens, UniProt P21675); assay: biochemical; settings: read-out: % Ctrl (1 uM)
BAZ2B = BAZ2B (Homo sapiens, UniProt Q9UIF8); assay: biochemical; settings: read-out: % Ctrl (1 uM)
BRPF3 = BRPF3 (Homo sapiens, UniProt Q9ULD4); assay: biochemical; settings: read-out: % Ctrl (1 uM)
BRD3(2) = BRD3(2) (Homo sapiens, UniProt Q15059); assay: biochemical; settings: read-out: % Ctrl (1 uM)
SMARCA4 = SMARCA4 (Homo sapiens, UniProt P51532); assay: biochemical; settings: read-out: % Ctrl (1 uM)
EP300 = EP300 (Homo sapiens, UniProt Q09472); assay: biochemical; settings: read-out: % Ctrl (1 uM)
TRIM24(PHD,Bromo.) = TRIM24(PHD,Bromo.) (Homo sapiens, UniProt O15164); assay: biochemical; settings: read-out: % Ctrl (1 uM)
BRPF1 = BRPF1 (Homo sapiens, UniProt P55201); assay: biochemical; settings: read-out: % Ctrl (1 uM)
FALZ = FALZ (Homo sapiens, UniProt Q12830); assay: biochemical; settings: read-out: % Ctrl (1 uM)
WDR9(2) = WDR9(2) (Homo sapiens, UniProt Q9NSI6); assay: biochemical; settings: read-out: % Ctrl (1 uM)
BRD2(2) = BRD2(2) (Homo sapiens, UniProt P25440); assay: biochemical; settings: read-out: % Ctrl (1 uM)
BRD2(1) = BRD2(1) (Homo sapiens, UniProt P25440); assay: biochemical; settings: read-out: % Ctrl (1 uM)
ATAD2B = ATAD2B (Homo sapiens, UniProt Q9ULI0); assay: biochemical; settings: read-out: % Ctrl (1 uM)
PBRM1(5) = PBRM1(5) (Homo sapiens, UniProt Q86U86); assay: biochemical; settings: read-out: % Ctrl (1 uM)

Chain of BRD8(1) (Q9H0E9 706-811 limits assumed): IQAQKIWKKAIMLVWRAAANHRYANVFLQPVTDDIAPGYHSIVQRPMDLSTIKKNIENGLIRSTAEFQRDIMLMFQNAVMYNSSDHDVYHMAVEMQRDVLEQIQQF

Structure (SMILES): COc1cc(-c2cn(C)c(=O)c3cnccc23)cc(OC)c1CN(C)C [BI-7273]
IC50 (BRD8(1); tracer: compound 1-biotin): less potently by I-BRD9 and BI-7273

Structure (SMILES): COc1cc(-c2cn(C)c(=O)c3cnccc23)c(OC)cc1CN(C)C [BI-9564]
IC50 (BRD8(1); tracer: compound 1-biotin): 970 nM

Structure (SMILES): COc1cc(CN2CC(N)C2)cc(OC)c1-c1cn(C)c(=O)c2cc(F)ccc12 [DN02]
remaining activity at 1 µM (ATAD2A): 100% | remaining activity at 1 µM (BRD7): 91% | remaining activity at 1 µM (BRDT(1)): 88% | remaining activity at 1 µM (CREBBP): 9.2% | remaining activity at 1 µM (BRD4(2)): 94% | remaining activity at 1 µM (CECR2): 74% | remaining activity at 1 µM (PBRM1(2)): 85% | remaining activity at 1 µM (TAF1L(2)): 91% | remaining activity at 1 µM (GCN5L2): 86% | remaining activity at 1 µM (BRD1): 89% | remaining activity at 1 µM (PCAF): 69% | remaining activity at 1 µM (BRD3(1)): 76% | remaining activity at 1 µM (BAZ2A): 69% | remaining activity at 1 µM (BRDT(2)): 88% | remaining activity at 1 µM (BRD4(1)): 88% | remaining activity at 1 µM (Trim33(PHD,Bromo.)): 92% | remaining activity at 1 µM (SMARCA2): 74% | remaining activity at 1 µM (BRD9 [2]): 80% | remaining activity at 1 µM (TAF1(2)): 79% | remaining activity at 1 µM (BAZ2B): 84% | remaining activity at 1 µM (BRPF3): 94% | remaining activity at 1 µM (BRD3(2)): 75% | remaining activity at 1 µM (SMARCA4): 71% | remaining activity at 1 µM (EP300): 8.4% | remaining activity at 1 µM (TRIM24(PHD,Bromo.)): 90% | remaining activity at 1 µM (BRPF1): 65% | remaining activity at 1 µM (FALZ): 82% | remaining activity at 1 µM (WDR9(2)): 88% | remaining activity at 1 µM (BRD2(2)): 89% | remaining activity at 1 µM (BRD2(1)): 72% | remaining activity at 1 µM (ATAD2B): 79% | remaining activity at 1 µM (PBRM1(5)): 87%

Results, then the molecule that gave them:

IC50 (BRD9 [1]): > 10000 nM | IC50 (BRD8(1)): 85 nM
Structure (SMILES): COc1cc(CN(C)C)cc(OC)c1-c1cn(C)c(=O)c2cnccc12 [compound 3]

IC50 (BRD9 [1]): > 10000 nM
Structure (SMILES): COc1ccc2ccccc2c1-c1cn(C)c(=O)c2cnccc12 [compound 2]

Source: paper doi:10.1101/2021.02.22.432362v1 (biorxiv, 2021)
